These results are taken from patent US20240352121A1, “LAIR-1 AGONISTIC ANTIBODIES AND METHODS OF USE THEREOF” (NEXTCURE, INC., priority 2023, published 2024).

In this experiment the test system is SHP-1. Kind of experiment: SHP-1 phosphorylation in primary patient AML blasts (Western blot). It is filed as cell-based, human. Particulars: collagen alone. On the procedure:
FIGS. 4A-4O show the collagen matrix is vital to LAIR-1 induced AML cell death. (FIGS. 4A-C). Flow cytometry quantification of primary live, dead, or apoptotic total blood leukocytes after ex vivo treatment with 10 μg/mL IgG isotype control (gray) or LAIR-1 mAb (red) in the presence (FIG. 4A) or absence (FIG. 4B) of exogenous collagen, or (FIG. 4C), CD451^Lo SSC^Lo blast cells in the presence of isotype control or LAIR-1 mAb. N=3 technical replicates. […] Each dot represents an individual donor. Red shading highlights surface expression >20000 arbitrary units. Blue shading highlights expression <20000 units. Line represents simple linear regression. […] N=4-7 donors. […] Mean pixel density from Western blotting normalized to isotype control condition and graphed relative to total SHP-1. N=3 technical replicates. […] FIGS. 4M and 4N) 4E-BP1 expression as measured by Lumit assay (FIG. 4M) or cleaved caspase-7 as measured by Western blot (FIG. 4N) of cells treated as shown in FIGS. 4I-4K. […] P values calculated by Student's t test. […]
For assessment of signaling in healthy cells, human monocytes were isolated from PBMCs from two donors using a StemCell monocyte isolation kit (StemCell, Vancouver, BC). […] Data were quantified using FIJI (NIH, MD).

In the case of “collagen: plate-coated human Collagen I, LAIR-1 ligand, mimics an extracellular matrix [reference compound]”, the “pSHP-1 relative to control” value is recorded as “limited increase”.
